Measured values from paper PMC7217877, “N-AS-triggered SPMs are direct regulators of microglia in a model of Alzheimer’s disease” (Nature Communications, 2020).
Several values for one entry are separate records, joined by “and”; a condition that tells them apart may be missing. Equal values may be shown once.

Assays:
5×FAD mice = experiment: western blot of synaptophysin, MAP2, synapsin1, PSD95 (Supplementary Fig 8f-i); assay type: in vivo, mouse; set-up: synaptophysin (western blot) / MAP2 (western blot) / synapsin1 (western blot): scale not given here
Protocol: Samples were lysed in RIPA buffer (Cell signaling Technologies), then subjected to SDS-PAGE and transferred to a nitrocellulose membrane. Membranes were blocked with 5% milk, incubated with primary antibody and then incubated with the appropriate horseradish peroxidase-conjugated secondary antibody. […] We performed densitometric quantification using the ImageJ software (National Institutes of Health). Images have been cropped for presentation.
Transgenic mouse lines over-expressing the hAPP695swe (APP) and presenilin-1M146V (PS1) mutations were originated from GlaxoSmithKline (Harlow, UK)[32] and maintained as described previously. We purchased 5×FAD mice from Jackson Labs (Stock number. 34840-JAX). Because APP/PS1 and 5xFAD mice show sex differences in disease progression, we used only male mice. To examine possible therapeutic effect of N-AS and aspirin in APP/PS1 mice, the N-AS (30 mg kg^−1, Sigma-Aldrich, 01912) was injected daily s.c. for 8 weeks to 7-months-old APP/PS1 mice until the age of 9 months, and aspirin (2 mg kg^−1, Sigma-Aldrich, A5376)[33] was administrated orally to 7-months-old APP/PS1 mice for 8 weeks. Also, to confirm possible therapeutic efficacy of N-AS in 5×FAD, the N-AS (30 mg kg^−1, Sigma-Aldrich, 01912) was injected daily s.c. for 4 weeks to 3-months-old 5×FAD mice until the age of 4 months. Block randomization method was used to allocate the animals to experimental groups. To eliminate the bias, we were blinded in experimental progress such as data collection and data analysis. Mice were housed at temperature of 22 °C and a 12 h day/12 h night cycle with free access to tap water and food pellets. All protocols were approved by the Kyungpook National University Institutional Animal Care and Use Committee.

microglia = experiment: SphK activity in primary cells; assay type: cell-based, C57BL/6 mice; settings: Ab 10mM, replicates
Protocol: We confirmed S1P formation through SphK1 enzymatic activity measurements as previously described[11] using a UPLC (Ultra performance liquid chromatography) system (Waters). […] After pre-incubation, 1 mM ATP (Amresco, 0220) was added the mixture, and it was incubated at 37 °C for 1 h. The […] reactions were stopped by adding 53 μl of ethanol, and centrifuged at 15,493×g for 5 min. Thirty microliter of the supernatant was then transferred to a sampling glass vial and 5 μl was applied onto a UPLC system for analysis. S1P formation was followed as phosphorylation of (7-nitro-2-1,3-benzoxadiazol-4-yl)-d-erythro (NBD)-sphingosine (Avanti Polar Lipids) to NBD-S1P. Quantification was achieved by comparison with NBD-S1P (Avanti Polar Lipids) standards.
To confirm the generation and roles of N-AS in neurons, cells from E18 C57BL/6 mice were prepared as previously described. Cortices were dissected and then dissociated followed by incubation in papain (Worthington) at 37 °C for 15 min. […] Aβ 1–42 (10 μM, 24 h, Invitrogen, 03112) was exposed to neurons and the cells were analyzed for the generation and roles of N-AS. […] The human microglia treated with Aβ 1–42 and/or zileuton was incubated with N-AS (2.5 μM, 2 h, Sigma-Aldrich, 01912), and were analyzed for the generation and roles of N-AS.

For `CCCCCCCCCCCCC/C=C/[C@@H](O)[C@H](CO)NC(C)=O` [N-AS, N-((2S,3R,E)-1,3-Dihydroxyoctadec-4-en-2-yl)acetamide], the “synaptophysin (western blot)” value (5×FAD mice; 5xFAD+N-AS, sFig 8f (sheet untitled)) was 4.053 and 6.357 and 5.065 and 6.083 and 5.205 and 5.711, the “MAP2 (western blot)” value (5×FAD mice; 5xFAD+N-AS, sFig 8g (sheet untitled)) was 2.523 and 3.013 and 3.332 and 2.975 and 2.768 and 3.172 and the “PSD95 (western blot)” value (5×FAD mice; 5xFAD+N-AS, sFig 8i (sheet untitled)) was 1.388 and 2.072 and 1.927 and 1.53 and 1.73 and 1.999. The “synapsin1 (western blot)” value (5×FAD mice; 5xFAD+N-AS, sFig 8h (sheet untitled)) was 3.576 and 2.661 and 2.523 and 3.332 and 3.119 and 2.592 and the synapse activity (5×FAD mice; 5×FAD, N-AS 30 mg kg^-1 daily s.c. 4 weeks) was “similarly improved AD pathology of 5×FAD mice”.
“Ab: Aβ 1–42 (Invitrogen, 03112) used to induce an AD environment in cells” was tested, and the “SphK activity (Fig 3d)” value (microglia) was 3.655 and 3.493 and 3.944 and 3.366 and 2.386 and 3.719.
